What follows are molecules tested on pentagastrin-stimulated acid secretion of the perfused rat stomach. Details: anesthetized CD rat, female; dose 1 μmol/kg i.d. (intraduodenal); pentagastrin 1 μg/kg i.v. infusion.
Experimental: The abdomen of anesthetized rats (CD rat, female, 200-250 g; 1.5 g/kg i.m. urethane) was opened after tracheotomy by a median upper abdominal incision and a PVC catheter was fixed transorally in the esophagus and another via the pylorus such that the ends of the tubes just projected into the gastric lumen. The catheter leading from the pylorus led outward into the right abdominal wall through a side opening.
After thorough rinsing (about 50-100 ml), warm (37° C.) physiological NaCl solution was continuously passed through the stomach (0.5 ml/min, pH 6.8-6.9; Braun-Unita I). The pH (pH meter 632, glass electrode EA 147; φ=5 mm, Metrohm) and, by titration with a freshly prepared 0.01 N NaOH solution to pH 7 (Dosimat 665 Metrohm), the secreted HCl were determined in the effluent in each case collected at an interval of 15 minutes.
The gastric secretion was stimulated by continuous infusion of […] (=1.65 ml/h) of i.v. pentagastrin (left femoral vein) about 30 min after the end of the operation (i.e. after determination of 2 preliminary fractions). The substances to be tested were administered intraduodenally in a 2.5 ml/kg liquid volume 60 min after the start of the continuous pentagastrin infusion. The body temperature of the animals was kept at a constant 37.8-38° C. by infrared irradiation and heat pads (automatic, stepless control by means of a rectal temperature sensor).

Compound	Inhibition of acid secretion (%)
Cc1nc2c3c(ccn2c1C)C(c1ccccc1)C(O)C(F)(F)O3 [Example 1, (8R,9R)-7,7-Difluoro-2,3-dimethyl-8-hydroxy-9-phenyl-7H-8,9-dihydro-pyrano[2,3-c]imidazo[1,2-a]pyridine]	>85%
CC(=O)OC1C(c2ccccc2)c2ccn3c(C)c(C)nc3c2OC1(F)F [Example 2, (8R,9R)-8-Acetoxy-7,7-difluoro-2,3-dimethyl-9-phenyl-7H-8,9-dihydro-pyrano[2,3-c]imidazo[1,2-a]pyridine]	>85%
COCC(=O)O[C@@H]1[C@@H](c2ccccc2)Oc2c(ccn3c(C)c(C)nc23)C1(F)F [Example 8, (8R,9R)-7,7-Difluoro-2,3-dimethyl-8-(2-methoxy-acetyloxy)-9-phenyl-7H-8,9-dihydro-pyrano[2,3-c]imidazo[1,2-a]pyridine]	>85%
Cc1nc2c3c(ccn2c1C)C(c1ccccc1)C(OC(=O)CN(C)C)C(F)(F)O3 [Example 9, (8R,9R)-7,7-Difluoro-2,3-dimethyl-8-(2-dimethylamino-acetyloxy)-9-phenyl-7H-8,9-dihydro-pyrano[2,3-c]imidazo[1,2-a]pyridine]	>85%
COC(=O)O[C@@H]1[C@@H](c2ccccc2)Oc2c(ccn3c(C)c(C)nc23)C1(F)F [Example 10, (8R,9R)-7,7-Difluoro-2,3-dimethyl-8-(methoxy-carbonyloxy)-9-phenyl-7H-8,9-dihydro-pyrano[2,3-c]imidazo[1,2-a]pyridine]	>85%

From patent US20080114020A1, “Difluoro-Substituted Imidazopyridines” (Altana Pharma AG, priority 2004, published 2008)
